# From patent US9399904B2, “Oil recovery system and method” (SHELL OIL COMPANY, priority 2013, dated 2016)
# Experiment: Dynamic viscosity of crude/dimethyl sulfide blends, closed cup rheometer
# Assay type: physicochemical
# Method: The quality of dimethyl sulfide as an oil recovery agent based on the crude oil viscosity lowering properties of dimethyl sulfide was evaluated. Three crude oils having widely disparate viscosity characteristics—an African Waxy crude, a Middle Eastern asphaltic crude, and a Canadian asphaltic crude—were blended with dimethyl sulfide.
# A control sample of each crude was prepared containing no dimethyl sulfide, and samples of each crude were prepared and blended with dimethyl sulfide to prepare crude samples containing increasing concentrations of dimethyl sulfide. The samples were heated to 60° C. to dissolve any waxes therein and to permit weighing of a homogeneous liquid. The samples were weighed, allowed to cool overnight, then blended with a selected quantity of dimethyl sulfide. The samples of the crude/dimethyl sulfide blend were then heated to 60° C. and mixed to ensure homogeneous blending of the dimethyl sulfide in the samples. Absolute (dynamic) viscosity measurements of each of the samples were taken using a closed cup rheometer using a PZ39 rotor sensor assembly in the rheometer. Viscosity measurements of each of the samples of the West African waxy crude and the Middle Eastern asphaltic crude were taken at 20° C., 40° C., 60° C., 80° C., and then again at 20° C. after cooling from 80° C., where the second measurement at 20° C. is taken to measure the viscosity without the presence of waxes since wax formation occurs slowly enough to permit viscosity measurement at 20° C. without the presence of wax. Viscosity measurements of each of the samples of the Canadian asphaltic crude were taken at 5° C., 10° C., 20° C., 40° C., 60° C., 80° C., The measured viscosities for each of the crudes are shown in Tables 4, 5, and 6 below.
smiles,measurement,setting,value
"CSC [Dimethyl Sulfide, dimethyl sulfide]",Viscosity of West African Waxy Crude,"1.21 wt. % DMS, 20° C.",125.8 mPa s
same,Viscosity of West African Waxy Crude,"1.21 wt. % DMS, 20° C. after cooling from 80° C.",100.1 mPa s
same,Viscosity of West African Waxy Crude,"1.21 wt. % DMS, 40° C.",30.94 mPa s
same,Viscosity of West African Waxy Crude,"1.21 wt. % DMS, 60° C.",14.66 mPa s
same,Viscosity of West African Waxy Crude,"1.21 wt. % DMS, 80° C.",8.92 mPa s
same,Viscosity of Middle Eastern Asphaltic Crude,"1.3 wt. % DMS, 20° C.",1733.8 mPa s
same,Viscosity of Middle Eastern Asphaltic Crude,"1.3 wt. % DMS, 20° C. after cooling from 80° C.",1624.8 mPa s
same,Viscosity of Middle Eastern Asphaltic Crude,"1.3 wt. % DMS, 40° C.",334.5 mPa s
same,Viscosity of Middle Eastern Asphaltic Crude,"1.3 wt. % DMS, 60° C.",106.7 mPa s
same,Viscosity of Middle Eastern Asphaltic Crude,"1.3 wt. % DMS, 80° C.",44.6 mPa s
same,Viscosity of Topped Canadian Asphaltic Crude,"1.43 wt. % DMS, 20° C.",212525 mPa s
same,Viscosity of Topped Canadian Asphaltic Crude,"1.43 wt. % DMS, 40° C.",14721 mPa s
same,Viscosity of Topped Canadian Asphaltic Crude,"1.43 wt. % DMS, 60° C.",2209 mPa s
same,Viscosity of Topped Canadian Asphaltic Crude,"1.43 wt. % DMS, 80° C.",538 mPa s
same,Viscosity of Topped Canadian Asphaltic Crude,"2.07 wt. % DMS, 20° C.",134880 mPa s
same,Viscosity of Topped Canadian Asphaltic Crude,"2.07 wt. % DMS, 40° C.",10523 mPa s
same,Viscosity of Topped Canadian Asphaltic Crude,"2.07 wt. % DMS, 60° C.",1747 mPa s
same,Viscosity of Topped Canadian Asphaltic Crude,"2.07 wt. % DMS, 80° C.",427 mPa s
same,Viscosity of West African Waxy Crude,"2.48 wt. % DMS, 20° C.",122.3 mPa s
same,Viscosity of West African Waxy Crude,"2.48 wt. % DMS, 20° C. after cooling from 80° C.",89.23 mPa s
same,Viscosity of West African Waxy Crude,"2.48 wt. % DMS, 40° C.",30.53 mPa s
same,Viscosity of West African Waxy Crude,"2.48 wt. % DMS, 60° C.",13.66 mPa s
same,Viscosity of West African Waxy Crude,"2.48 wt. % DMS, 80° C.",8.44 mPa s
same,Viscosity of Middle Eastern Asphaltic Crude,"2.6 wt. % DMS, 20° C.",1026.6 mPa s
same,Viscosity of Middle Eastern Asphaltic Crude,"2.6 wt. % DMS, 20° C. after cooling from 80° C.",881.1 mPa s
same,Viscosity of Middle Eastern Asphaltic Crude,"2.6 wt. % DMS, 40° C.",219.9 mPa s
same,Viscosity of Middle Eastern Asphaltic Crude,"2.6 wt. % DMS, 60° C.",76.5 mPa s
same,Viscosity of Middle Eastern Asphaltic Crude,"2.6 wt. % DMS, 80° C.",34.3 mPa s
same,Viscosity of Topped Canadian Asphaltic Crude,"4.87 wt. % DMS, 20° C.",28720 mPa s
same,Viscosity of Topped Canadian Asphaltic Crude,"4.87 wt. % DMS, 40° C.",3235 mPa s
same,Viscosity of Topped Canadian Asphaltic Crude,"4.87 wt. % DMS, 60° C.",985 mPa s
same,Viscosity of Topped Canadian Asphaltic Crude,"4.87 wt. % DMS, 80° C.",328 mPa s
same,Viscosity of West African Waxy Crude,"5.03 wt. % DMS, 20° C.",78.37 mPa s
same,Viscosity of West African Waxy Crude,"5.03 wt. % DMS, 20° C. after cooling from 80° C.",55.21 mPa s
same,Viscosity of West African Waxy Crude,"5.03 wt. % DMS, 40° C.",20.24 mPa s
same,Viscosity of West African Waxy Crude,"5.03 wt. % DMS, 60° C.",10.45 mPa s
same,Viscosity of West African Waxy Crude,"5.03 wt. % DMS, 80° C.",6.55 mPa s
same,Viscosity of Middle Eastern Asphaltic Crude,"5.3 wt. % DMS, 20° C.",496.5 mPa s
same,Viscosity of Middle Eastern Asphaltic Crude,"5.3 wt. % DMS, 20° C. after cooling from 80° C.",503.5 mPa s
same,Viscosity of Middle Eastern Asphaltic Crude,"5.3 wt. % DMS, 40° C.",134.2 mPa s
same,Viscosity of Middle Eastern Asphaltic Crude,"5.3 wt. % DMS, 60° C.",52.2 mPa s
same,Viscosity of Middle Eastern Asphaltic Crude,"5.3 wt. % DMS, 80° C.",25.5 mPa s
same,Viscosity of Middle Eastern Asphaltic Crude,"7.6 wt. % DMS, 20° C.",288.0 mPa s
same,Viscosity of West African Waxy Crude,"7.60 wt. % DMS, 20° C.",60.92 mPa s
same,Viscosity of Middle Eastern Asphaltic Crude,"7.6 wt. % DMS, 20° C. after cooling from 80° C.",290.0 mPa s
same,Viscosity of West African Waxy Crude,"7.60 wt. % DMS, 20° C. after cooling from 80° C.",40.89 mPa s
same,Viscosity of Middle Eastern Asphaltic Crude,"7.6 wt. % DMS, 40° C.",89.4 mPa s
same,Viscosity of West African Waxy Crude,"7.60 wt. % DMS, 40° C.",17.08 mPa s
same,Viscosity of Middle Eastern Asphaltic Crude,"7.6 wt. % DMS, 60° C.",37.4 mPa s
same,Viscosity of West African Waxy Crude,"7.60 wt. % DMS, 60° C.",9.29 mPa s
same,Viscosity of Middle Eastern Asphaltic Crude,"7.6 wt. % DMS, 80° C.",19.3 mPa s
same,Viscosity of West African Waxy Crude,"7.60 wt. % DMS, 80° C.",6.09 mPa s
same,Viscosity of Topped Canadian Asphaltic Crude,"8.01 wt. % DMS, 20° C.",5799 mPa s
same,Viscosity of Topped Canadian Asphaltic Crude,"8.01 wt. % DMS, 40° C.",982 mPa s
same,Viscosity of Topped Canadian Asphaltic Crude,"8.01 wt. % DMS, 60° C.",275 mPa s
same,Viscosity of Topped Canadian Asphaltic Crude,"8.01 wt. % DMS, 80° C.",106 mPa s
same,Viscosity of Topped Canadian Asphaltic Crude,"9.80 wt. % DMS, 20° C.",2760 mPa s
same,Viscosity of Topped Canadian Asphaltic Crude,"9.80 wt. % DMS, 40° C.",571 mPa s
same,Viscosity of Topped Canadian Asphaltic Crude,"9.80 wt. % DMS, 60° C.",173 mPa s
same,Viscosity of Topped Canadian Asphaltic Crude,"9.80 wt. % DMS, 80° C.",73 mPa s
same,Viscosity of West African Waxy Crude,"9.95 wt. % DMS, 20° C.",44.70 mPa s
same,Viscosity of West African Waxy Crude,"9.95 wt. % DMS, 20° C. after cooling from 80° C.",30.61 mPa s
same,Viscosity of West African Waxy Crude,"9.95 wt. % DMS, 40° C.",13.03 mPa s
same,Viscosity of West African Waxy Crude,"9.95 wt. % DMS, 60° C.",7.58 mPa s
same,Viscosity of West African Waxy Crude,"9.95 wt. % DMS, 80° C.",5.04 mPa s
same,Viscosity of Middle Eastern Asphaltic Crude,"10.1 wt. % DMS, 20° C.",150.0 mPa s
same,Viscosity of Middle Eastern Asphaltic Crude,"10.1 wt. % DMS, 20° C. after cooling from 80° C.",150.5 mPa s
same,Viscosity of Middle Eastern Asphaltic Crude,"10.1 wt. % DMS, 40° C.",52.4 mPa s
same,Viscosity of Middle Eastern Asphaltic Crude,"10.1 wt. % DMS, 60° C.",24.5 mPa s
same,Viscosity of Middle Eastern Asphaltic Crude,"10.1 wt. % DMS, 80° C.",13.5 mPa s
same,Viscosity of Topped Canadian Asphaltic Crude,"14.81 wt. % DMS, 5° C.",1794 mPa s
same,Viscosity of Topped Canadian Asphaltic Crude,"14.81 wt. % DMS, 10° C.",1155 mPa s
same,Viscosity of Topped Canadian Asphaltic Crude,"14.81 wt. % DMS, 20° C.",548 mPa s
same,Viscosity of Topped Canadian Asphaltic Crude,"14.81 wt. % DMS, 40° C.",159 mPa s
same,Viscosity of Topped Canadian Asphaltic Crude,"14.81 wt. % DMS, 60° C.",64 mPa s
same,Viscosity of Topped Canadian Asphaltic Crude,"14.81 wt. % DMS, 80° C.",32 mPa s
same,Viscosity of West African Waxy Crude,"15.13 wt. % DMS, 20° C.",23.96 mPa s
same,Viscosity of West African Waxy Crude,"15.13 wt. % DMS, 20° C. after cooling from 80° C.",17.64 mPa s
same,Viscosity of West African Waxy Crude,"15.13 wt. % DMS, 40° C.",8.32 mPa s
same,Viscosity of West African Waxy Crude,"15.13 wt. % DMS, 60° C.",4.97 mPa s
same,Viscosity of West African Waxy Crude,"15.13 wt. % DMS, 80° C.",3.38 mPa s
same,Viscosity of Middle Eastern Asphaltic Crude,"15.2 wt. % DMS, 20° C.",59.4 mPa s
same,Viscosity of Middle Eastern Asphaltic Crude,"15.2 wt. % DMS, 20° C. after cooling from 80° C.",60.7 mPa s
same,Viscosity of Middle Eastern Asphaltic Crude,"15.2 wt. % DMS, 40° C.",25.2 mPa s
same,Viscosity of Middle Eastern Asphaltic Crude,"15.2 wt. % DMS, 60° C.",13.6 mPa s
same,Viscosity of Middle Eastern Asphaltic Crude,"15.2 wt. % DMS, 80° C.",8.2 mPa s
same,Viscosity of West African Waxy Crude,"19.30 wt. % DMS, 20° C.",15.26 mPa s
same,Viscosity of West African Waxy Crude,"19.30 wt. % DMS, 20° C. after cooling from 80° C.",12.06 mPa s
same,Viscosity of West African Waxy Crude,"19.30 wt. % DMS, 40° C.",6.25 mPa s
same,Viscosity of West African Waxy Crude,"19.30 wt. % DMS, 60° C.",4.05 mPa s
same,Viscosity of West African Waxy Crude,"19.30 wt. % DMS, 80° C.",2.92 mPa s
same,Viscosity of Topped Canadian Asphaltic Crude,"19.78 wt. % DMS, 20° C.",188 mPa s
same,Viscosity of Topped Canadian Asphaltic Crude,"19.78 wt. % DMS, 40° C.",69 mPa s
same,Viscosity of Topped Canadian Asphaltic Crude,"19.78 wt. % DMS, 60° C.",33 mPa s
same,Viscosity of Topped Canadian Asphaltic Crude,"19.78 wt. % DMS, 80° C.",19 mPa s
same,Viscosity of Middle Eastern Asphaltic Crude,"20.1 wt. % DMS, 20° C.",29.9 mPa s
same,Viscosity of Middle Eastern Asphaltic Crude,"20.1 wt. % DMS, 20° C. after cooling from 80° C.",31.0 mPa s
same,Viscosity of Middle Eastern Asphaltic Crude,"20.1 wt. % DMS, 40° C.",14.8 mPa s
same,Viscosity of Middle Eastern Asphaltic Crude,"20.1 wt. % DMS, 60° C.",8.7 mPa s
same,Viscosity of Middle Eastern Asphaltic Crude,"20.1 wt. % DMS, 80° C.",5.7 mPa s
same,Viscosity of Topped Canadian Asphaltic Crude,"29.88 wt. % DMS, 5° C.",113 mPa s
same,Viscosity of Topped Canadian Asphaltic Crude,"29.88 wt. % DMS, 10° C.",81 mPa s
same,Viscosity of Topped Canadian Asphaltic Crude,"29.88 wt. % DMS, 20° C.",51 mPa s
same,Viscosity of Topped Canadian Asphaltic Crude,"29.88 wt. % DMS, 40° C.",22 mPa s
same,Viscosity of Topped Canadian Asphaltic Crude,"29.88 wt. % DMS, 60° C.",13 mPa s
same,Viscosity of Topped Canadian Asphaltic Crude,"29.88 wt. % DMS, 80° C.",8 mPa s
same,Viscosity of Topped Canadian Asphaltic Crude,"39.61 wt. % DMS, 5° C.",23 mPa s
same,Viscosity of Topped Canadian Asphaltic Crude,"39.61 wt. % DMS, 10° C.",20 mPa s
same,Viscosity of Topped Canadian Asphaltic Crude,"39.61 wt. % DMS, 20° C.",14 mPa s
same,Viscosity of Topped Canadian Asphaltic Crude,"39.61 wt. % DMS, 40° C.",8 mPa s
same,Viscosity of Topped Canadian Asphaltic Crude,"39.61 wt. % DMS, 60° C.",6 mPa s
same,Viscosity of Topped Canadian Asphaltic Crude,"39.61 wt. % DMS, 80° C.",4 mPa s
same,"lowering the viscosity of a crude oil, in words","all three crudes, particularly Canadian asphaltenic crude oil",effective for significantly lowering the viscosity of a crude oil
